Data from the supplement of paper PMC5908809.

How the values were obtained:
[1] = tested on: normal NK cells expanded with K562-aAPC; assay: drug sensitivity score (DSS) (DSS units); higher = more sensitive; extreme values may be limits of the assay; details: 72 h; IL-2 2.5 ng/mL
Protocol: (§1)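 Drug sensitivity and resistance testing on K562-aAPC-expanded normal NK cells: 5 concentrations (10-fold steps over a 10,000-fold range), 72 h at 37 °C, viability by CellTiter-Glo normalised to DMSO and benzethonium chloride controls; DSS from the fitted curve.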

NK-92 (IL-2 2.5 ng/mL) [2] = assay: percent inhibition of viability; higher = more inhibition; details: 72 h
KHYG-1 (IL-2 2.5 ng/mL) [3] = assay: as above; details: 72 h
[4] = tested on: normal primary NK cells, pool 3 (3 donors) (IL-2 2.5 ng/mL); assay: as above; details: 72 h
NKL (IL-2 2.5 ng/mL) [5] = assay: as above; details: 72 h
IMC-1 (IL-2 20 ng/mL) [6] = assay: as above; details: 72 h
[7] = tested on: normal primary NK cells, pool 2 (3 donors) (IL-2 2.5 ng/mL); assay: as above; details: 72 h
[8] = tested on: normal primary NK cells, pool 1 (3 donors), resting (IL-2 0 ng/mL); assay: as above; details: 72 h
[9] = tested on: normal primary NK cells, pool 1 (3 donors) (IL-2 2.5 ng/mL); assay: as above; details: 72 h
DERL-7 (IL-2 2.5 ng/mL) [10] = assay: as above; details: 72 h
SNK-6 (IL-2 2.5 ng/mL) [11] = assay: as above; details: 72 h
YT (IL-2 2.5 ng/mL) [12] = assay: as above; details: 72 h
NK-YS (IL-2 2.5 ng/mL) [13] = assay: as above; details: 72 h
KAI3 (IL-2 2.5 ng/mL) [14] = assay: as above; details: 72 h
NK-92 (IL-2 2.5 ng/mL) [15] = assay: drug sensitivity score (DSS) (DSS units); higher = more sensitive; extreme values may be limits of the assay; details: 72 h
KHYG-1 (IL-2 2.5 ng/mL) [16] = assay: as above; details: 72 h
[17] = tested on: normal primary NK cells, pool 3 (3 donors) (IL-2 2.5 ng/mL); assay: as above; details: 72 h
NKL (IL-2 2.5 ng/mL) [18] = assay: as above; details: 72 h
IMC-1 (IL-2 20 ng/mL) [19] = assay: as above; details: 72 h
[20] = tested on: normal primary NK cells, pool 2 (3 donors) (IL-2 2.5 ng/mL); assay: as above; details: 72 h
[21] = tested on: normal primary NK cells, pool 1 (3 donors), resting (IL-2 0 ng/mL); assay: as above; details: 72 h
[22] = tested on: normal primary NK cells, pool 1 (3 donors) (IL-2 2.5 ng/mL); assay: as above; details: 72 h
DERL-7 (IL-2 2.5 ng/mL) [23] = assay: as above; details: 72 h
SNK-6 (IL-2 2.5 ng/mL) [24] = assay: as above; details: 72 h
YT (IL-2 2.5 ng/mL) [25] = assay: as above; details: 72 h
NK-YS (IL-2 2.5 ng/mL) [26] = assay: as above; details: 72 h
KAI3 (IL-2 2.5 ng/mL) [27] = assay: as above; details: 72 h
[28] = tested on: normal NK cells expanded with K562-aAPC; assay: percent inhibition of viability; higher = more inhibition; details: 72 h, IL-2 2.5 ng/mL
Protocol: as §1

O=NN(CCCl)C(=O)NCCCl [Carmustine] (max concentration tested 10000 nM)
Details | drug sensitivity score
DERL-7 (IL-2 2.5 ng/mL) [23] | 0
IMC-1 (IL-2 20 ng/mL) [19] | 0
KAI3 (IL-2 2.5 ng/mL) [27] | 0
KHYG-1 (IL-2 2.5 ng/mL) [16] | 0
NK-92 (IL-2 2.5 ng/mL) [15] | 1.02
NK-YS (IL-2 2.5 ng/mL) [26] | 0
NKL (IL-2 2.5 ng/mL) [18] | 1.26
SNK-6 (IL-2 2.5 ng/mL) [24] | 0
YT (IL-2 2.5 ng/mL) [25] | 0
[1] | 0.01
[17] | 0
[20] | 0
[21] | 0
[22] | 0

percent inhibition of viability [%]
Details | 1 nM | 10 nM | 100 nM | 1000 nM | 10000 nM
DERL-7 (IL-2 2.5 ng/mL) [10] | 5.36 | 1.21 | 3.36 | -4.79 | -4.35
IMC-1 (IL-2 20 ng/mL) [6] | -8.03 | -3.09 | -2.96 | 3.55 | 8.41
KAI3 (IL-2 2.5 ng/mL) [14] | 12.9 | 6.82 | 6.77 | 13.6 | 17.8
KHYG-1 (IL-2 2.5 ng/mL) [3] | -12.5 | -8.6 | -6.75 | 0.23 | 1.87
NK-92 (IL-2 2.5 ng/mL) [2] | -3.64 | -0.92 | 5.06 | 12.7 | 8.79
NK-YS (IL-2 2.5 ng/mL) [13] | -3.2 | -2.47 | -1.96 | 2.21 | 7.95
NKL (IL-2 2.5 ng/mL) [5] | 4.96 | 5.53 | 6.04 | 16.2 | 15.6
SNK-6 (IL-2 2.5 ng/mL) [11] | -5.81 | -6.45 | 1.48 | -7.81 | -8.51
YT (IL-2 2.5 ng/mL) [12] | -9.42 | -5.55 | -4.43 | -1.14 | 11
[4] | -2.97 | 5.49 | 5.6 | 3.01 | 4.59
[7] | -2.54 | 3.84 | 0.64 | 0.07 | 9.39
[8] | 9.22 | 19.6 | 23.1 | 5.64 | 15.2
[9] | 4.94 | 8.26 | 6.5 | 0.38 | 7.88
[28] | -3.33 | -8.02 | -3.23 | 5.49 | 10.2

CC(=O)NCC(=O)N1[C@@H]2CC[C@H]1c1ccc(Nc3ncc(C(F)(F)F)c(NC4CCC4)n3)cc12 (max concentration tested 10000 nM)
Details | drug sensitivity score
DERL-7 (IL-2 2.5 ng/mL) [23] | 27.3
IMC-1 (IL-2 20 ng/mL) [19] | 24.2
KAI3 (IL-2 2.5 ng/mL) [27] | 22.9
KHYG-1 (IL-2 2.5 ng/mL) [16] | 28.7
NK-92 (IL-2 2.5 ng/mL) [15] | 22.1
NK-YS (IL-2 2.5 ng/mL) [26] | 21.9
NKL (IL-2 2.5 ng/mL) [18] | 22.5
SNK-6 (IL-2 2.5 ng/mL) [24] | 31
YT (IL-2 2.5 ng/mL) [25] | 15.1
[1] | 24.6
[17] | 10
[20] | 12
[21] | 3.63
[22] | 11

percent inhibition of viability [%]
Details | 1 nM | 10 nM | 100 nM | 1000 nM | 10000 nM
DERL-7 (IL-2 2.5 ng/mL) [10] | -3.49 | 2.07 | 76.5 | 79.7 | 101
IMC-1 (IL-2 20 ng/mL) [6] | 1.14 | -0.36 | 54.2 | 92.5 | 102
KAI3 (IL-2 2.5 ng/mL) [14] | 2 | 18.3 | 49.2 | 85 | 103
KHYG-1 (IL-2 2.5 ng/mL) [3] | 5.24 | 7.98 | 82.5 | 103 | 105
NK-92 (IL-2 2.5 ng/mL) [2] | -9.89 | 2.73 | 54 | 76.7 | 104
NK-YS (IL-2 2.5 ng/mL) [13] | -3.49 | 7.45 | 62.7 | 65.7 | 102
NKL (IL-2 2.5 ng/mL) [5] | -9.97 | 18.8 | 54.1 | 75 | 104
SNK-6 (IL-2 2.5 ng/mL) [11] | 9.63 | 33.2 | 82.6 | 85.3 | 98.7
YT (IL-2 2.5 ng/mL) [12] | 3.79 | 9.48 | 23.2 | 62.2 | 103
[4] | -18.1 | -9.96 | 2.88 | 33.6 | 97.8
[7] | -12.8 | 1.36 | 16.8 | 50.3 | 96.5
[8] | -11.5 | -16.5 | -21.3 | -42.6 | 91.9
[9] | 4.9 | -3.44 | 17 | 44.7 | 98.1
[28] | -3.83 | 6.05 | 58.2 | 91 | 101
